Experiment [1] concerns C57BL/6 mouse irradiated with 7.5 Gy gamma radiation. Description: Hair regrowth in an irradiated mouse (Example 1). The class given is in vivo. The conditions noted are these: 12 days of treatment, FIG. 1A, untreated control showed no new growth hair. An excerpt: FIG. 1A. A C57BL/6 mouse irradiated with 7.5 Gy gamma radiation on Sep. 24, 2003 and given 12 days of [Sar, Met(02)^11]-substance P (Homspera™) treatment.
FIG. 1B. A C57BL/6 mouse irradiated with 7.5 Gy gamma radiation on Sep. 24, 2003 and given no Homspera™ treatment.
A C57BL/6 mouse was irradiated with 7.5 Gy gamma radiation on Sep. 24, 2003 and given 12 days of [Sar, Met(02)^11]-substance P (Homspera™) treatment. […] As a control, a C57BL/was 6 mouse irradiated with 7.5 Gy gamma radiation on Sep. 24, 2003 and given no Homspera™ treatment. No new growth hair was observed.

For experiment [2], the system named is C57BL/6 mice given Cobalt 60 gamma radiation. Description: Restoration of radiation-induced hair loss in mice, aerosol treatment (Example 2). The class given is in vivo, mouse. The settings on record: mice pre-exposed to 5 Gy or 2.5 Gy, then 10 Gy at day 75; hair loss over approximately 20% of body; one micromolar by aerosol 15 min/day, 9 days of treatment. Here is the method:
C57BL/6 mice were given a Cobalt 60 gamma radiation treatment on Sep. 24, 2002 of either 10 Gy, 7.5 Gy, 5 Gy, or 2.5 Gy. The 10 Gy mice died at an average of 11.3 days after the radiation exposure. All of the other mice in the other radiation exposure groups survived at least until Dec. 18, 2002. At 75 days after the initial radiation exposure, the 5 Gy and 2.5 Gy mice were administered a 10 Gy dose of Cobalt 60 gamma radiation. On the day of the second 10 Gy radiation exposure, it was noted that the 5 Gy and 2.5 Gy mice had hair loss over approximately 20% of their body with the most significant hair loss in their leg areas and around their ears. Half of the 5 Gy and 2.5 Gy (N=10) mice were administered a one micromolar Homspera™ dose by aerosol for 15 min/day beginning the day of the 10 Gy radiation exposure.

The test system of experiment [3] is C57BL/6 mice, lethal dose of gamma radiation (7.75 Gy). Put plainly: Hair retention and immune status after a lethal dose of gamma radiation (Example 3). In kind it is in vivo, mouse. The settings on record: for hair retention: photographed at Day +56 and Day +90 after radiation. The source says: FIG. 2A. Group 1 (90 day treatment of Homspera™) mice photographed at day 56 after radiation.
FIG. 2B. Group 2 (35 day treatment of Homspera™) mice photographed at day 56 after radiation.
FIG. 2C. Group 1 (90 day treatment of Homspera™) mice photographed at day 90 after radiation.
FIG. 2D. Group 2 (35 day treatment of Homspera™) mice photographed at day 90 after radiation.
C57BL/6 mice were divided into three groups. Groups 1 and 2 underwent a lethal dose of gammna radiation (7.75 Gy) on July 11th. Group 1 mice were treated with Homspera™ (50 micromolar for 35 days and then a maintenance dose of 10 micromolar until +90 days), and then they were killed at +90 days post-lethal radiation (October 9th). Their immune system status was normal compared to control mice (Group 3) that had not been treated with radiation and had not been treated with Homspera™. Group 2 mice received Homspera™ treatment for 35 days after radiation, and then the Homspera™ treatment was completely stopped.
There are two sets of pictures of the Group 1 and Group 2 mice: one set of pictures taken on September 5th at Day +56 after radiation (FIGS. 2A and 2B), and the other on October 9th at Day +90 after radiation (FIGS. 2C and 2D).

On to “[Sar, Met(02)^11]-substance P [Homspera™]”, for which the new hair growth entry in experiment [1] was “New growth (black) hair was observed”. In experiment [2], the “restoration of hair loss” value is “restored their hair loss”. Besides, the hair retention result in experiment [3] (Group 1: 7.75 Gy, 90 day treatment) was “retained their hair”; in experiment [3] (Group 2: 7.75 Gy, 35 day treatment then stopped) it was “retained their hair”. In addition, in experiment [3] (Group 1: 7.75 Gy, 50 micromolar for 35 days, then 10 micromolar until +90 days, at +90 days, compared to untreated non-irradiated control mice (Group 3)), the immune system status entry is given as “normal”.

Values taken from patent US20060153789A1, “Stimulation of hair regrowth” (priority 2002, published 2006).
